From DBAASP
Values after ≈ are worked out from the molar mass of the structure shown.

Legend:
Assay in all cases: ≥ marks a high value that may be exact or a test limit, other limits are often not marked, values filed in µg/mL are converted to µM
[1] = tested on: Pseudomonas aeruginosa CMCCB 10104
[2] = tested on: Staphylococcus aureus ATCC 25923
[3] = tested on: Candida albicans ATCC 2002
[4] = tested on: Escherichia coli ATCC 25922
[5] = tested on: Candida albicans ATCC 90028
[6] = tested on: Escherichia coli ATCC 25726
[7] = tested on: Enterococcus faecalis ATCC 29212
Escherichia coli UB1005 = tested on: Escherichia coli UB1005
[8] = tested on: Staphylococcus epidermidis
[9] = tested on: Pseudomonas aeruginosa H103
[10] = tested on: Salmonella enterica serovar Typhimurium
Candida albicans = tested on: Candida albicans

Compound	MIC [1]	MIC [2]	MIC [3]	MIC [4]	MIC [5]	MIC [6]	MIC [7]	MIC (Escherichia coli UB1005)	MIC [8]	MIC [9]	MIC [10]	MIC (Candida albicans)
CC[C@H](C)[C@H](NC(=O)CNC(=O)[C@H](C)NC(=O)[C@H](Cc1ccccc1)NC(=O)[C@H](CC(C)C)NC(=O)[C@H](CCCCN)NC(=O)[C@@H]1CCCN1C(=O)[C@H](CC(C)C)NC(=O)[C@@H](N)Cc1ccccc1)C(=O)N[C@H](C(=O)N[C@@H](CO)C(=O)N[C@@H](CCCCN)C(=O)N[C@@H](CC(N)=O)C(=O)N[C@@H](Cc1ccccc1)C(=O)O)[C@@H](C)CC [FLPKLFAGIISKNF]	6.58 µM (≈ 10.5 µg/mL)	13.2 µM (≈ 21 µg/mL)	3.32 µM (≈ 5.3 µg/mL)	6.58 µM (≈ 10.5 µg/mL)	–	–	–	–	–	–	–	–
CC[C@H](C)[C@H](NC(=O)CN)C(=O)N[C@@H](Cc1ccccc1)C(=O)N[C@@H](CO)C(=O)N[C@@H](CCCCN)C(=O)N[C@H](C(=O)N[C@@H](CO)C(=O)NCC(=O)N[C@@H](CCCCN)C(=O)N[C@@H](C)C(=O)N[C@H](C(=O)N[C@@H](CCCCN)C(=O)N[C@@H](CC(N)=O)C(=O)N[C@@H](CC(C)C)C(=O)N[C@@H](Cc1ccccc1)C(=O)N[C@H](C(=O)N[C@@H](CCCCN)C(=O)NCC(=O)N[C@@H](C)C(=O)N[C@@H](CCCCN)C(=O)N[C@@H](CC(N)=O)C(=O)N[C@H](C(=O)NCC(=O)N[C@@H](CCCCN)C(=O)N[C@@H](CCC(=O)O)C(=O)N[C@H](C(=O)NCC(=O)N[C@@H](CCSC)C(=O)N[C@@H](CC(=O)O)C(=O)N[C@H](C(=O)N[C@H](C(=O)N[C@@H](CCCN=C(N)N)C(=O)N[C@H](C(=O)NCC(=O)N[C@H](C(=O)N[C@@H](CC(=O)O)C(=O)N[C@H](C(=O)N[C@H](C(=O)NCC(=O)N[C@H]1CSSC[C@@H](C(=O)O)NC(=O)[C@H](CCC(=O)O)NC(=O)CNC(=O)[C@H](CCCCN)NC(=O)[C@H]([C@@H](C)CC)NC(=O)[C@H](CCCCN)NC1=O)C(C)C)C(C)C)[C@@H](C)CC)[C@@H](C)O)C(C)C)C(C)C)C(C)C)C(C)C)[C@@H](C)CC)[C@@H](C)CC)[C@@H](C)CC [GIFSKISGKAIKNLFIKGAKNVGKEVGMDVVRTGIDVVGCKIKGEC]	3.66 µM (≈ 17.6 µg/mL)	0.915 µM (≈ 4.4 µg/mL)	1.83 µM (≈ 8.8 µg/mL)	1.83 µM (≈ 8.8 µg/mL)	–	–	–	–	–	–	–	–
CC[C@H](C)[C@H](NC(=O)[C@@H](NC(=O)[C@@H](NC(=O)CNC(=O)[C@H](C)NC(=O)[C@@H](NC(=O)[C@H](CC(N)=O)NC(=O)[C@@H](NC(=O)[C@H](C)NC(=O)[C@H](CC(C)C)NC(=O)[C@H](CC(N)=O)NC(=O)[C@H](CCCCN)NC(=O)[C@H](Cc1ccccc1)NC(=O)[C@@H](NC(=O)[C@H](CO)NC(=O)[C@H](CC(C)C)NC(=O)[C@H](CC(C)C)NC(=O)CN)[C@@H](C)O)[C@@H](C)O)C(C)C)[C@@H](C)O)C(C)C)C(=O)N[C@@H](CC(=O)O)C(=O)N[C@H](C(=O)N[C@@H](CC(C)C)C(=O)N[C@@H](CCCCN)C(=O)N[C@H]1CSSC[C@@H](C(=O)N[C@@H](CCCN=C(N)N)C(=O)N[C@H](C(=O)O)[C@@H](C)O)NC(=O)CNC(=O)CNC(=O)[C@H]([C@@H](C)O)NC(=O)[C@H](C(C)C)NC(=O)[C@H](CCCCN)NC1=O)[C@@H](C)O [GLLSTFKNLATNVAGTVIDTLKCKVTGGCRT]	–	> 80 µM	–	–	≥ 80 µM	≥ 80 µM	–	–	–	–	–	–
CC[C@H](C)[C@H](N)C(=O)N[C@H](C(=O)N[C@H](C(=O)N1CCC[C@H]1C(=O)N1CCC[C@H]1C(=O)N[C@H](C(=O)N[C@H](C(=O)N[C@@H](CCCCN)C(=O)N[C@@H](CC(=O)O)C(=O)N[C@H](C(=O)N[C@@H](CC(C)C)C(=O)N[C@@H](CCCCN)C(=O)N[C@@H](CCCCN)C(=O)N[C@@H](Cc1ccccc1)C(=O)N[C@H](C(=O)N[C@@H](CCCCN)C(=O)NCC(=O)N[C@@H](C)C(=O)N[C@H](C(=O)N[C@@H](CO)C(=O)NCC(=O)N[C@H](C(=O)N[C@@H](CCSC)C(N)=O)C(C)C)[C@@H](C)CC)[C@@H](C)CC)[C@@H](C)O)C(C)C)[C@@H](C)CC)[C@@H](C)CC)[C@@H](C)O [ITIPPIVKDTLKKFIKGAISGVM]	–	20 µM (≈ 49.4 µg/mL)	–	–	–	≥ 80 µM	–	–	–	–	–	–
NCCCC[C@H](NC(=O)[C@H](Cc1c[nH]c2ccccc12)NC(=O)[C@H](Cc1c[nH]c2ccccc12)NC(=O)[C@H](CCCN=C(N)N)NC(=O)[C@@H](N)CCCCN)C(=O)N[C@@H](Cc1c[nH]c2ccccc12)C(=O)N[C@@H](Cc1c[nH]c2ccccc12)C(=O)N[C@@H](CCCN=C(N)N)C(=O)N[C@@H](CCCN=C(N)N)C(=O)O [KRWWKWWRR]	–	0.7 µM (≈ 1.04 µg/mL)	–	–	–	–	11.1 µM (≈ 16.5 µg/mL)	2.8 µM (≈ 4.17 µg/mL)	0.7 µM (≈ 1.04 µg/mL)	11.1 µM (≈ 16.5 µg/mL)	5.6 µM (≈ 8.33 µg/mL)	5.6 µM (≈ 8.33 µg/mL)
NCCCC[C@H](N)C(=O)N[C@@H](CCCN=C(N)N)C(=O)N[C@@H](Cc1c[nH]c2ccccc12)C(=O)N[C@@H](Cc1c[nH]c2ccccc12)C(=O)N[C@@H](Cc1c[nH]c2ccccc12)C(=O)N[C@@H](Cc1c[nH]c2ccccc12)C(=O)N[C@@H](CCCN=C(N)N)C(=O)N[C@@H](Cc1ccccc1)C(=O)N[C@@H](CCCN=C(N)N)C(=O)O [KRWWWWRFR]	–	0.7 µM (≈ 1.05 µg/mL)	–	–	–	–	11.7 µM (≈ 17.6 µg/mL)	2.9 µM (≈ 4.37 µg/mL)	0.7 µM (≈ 1.05 µg/mL)	≥ 46.9 µM	5.9 µM (≈ 8.89 µg/mL)	5.9 µM (≈ 8.89 µg/mL)
CC[C@H](C)[C@H](NC(=O)[C@H](Cc1ccccc1)NC(=O)[C@H](CCCN=C(N)N)NC(=O)[C@@H](N)CC(C)C)C(=O)N[C@@H](CC(C)C)C(=O)N[C@@H](Cc1c[nH]c2ccccc12)C(=O)N[C@@H](Cc1c[nH]c2ccccc12)C(=O)N[C@@H](CCCCN)C(=O)N[C@@H](CCCN=C(N)N)C(=O)O [LRFILWWKR]	–	1.6 µM (≈ 2.11 µg/mL)	–	–	–	–	6.4 µM (≈ 8.43 µg/mL)	3.2 µM (≈ 4.22 µg/mL)	1.6 µM (≈ 2.11 µg/mL)	25.7 µM (≈ 33.9 µg/mL)	6.4 µM (≈ 8.43 µg/mL)	6.4 µM (≈ 8.43 µg/mL)
CC(C)C[C@H](NC(=O)[C@H](CCCCN)NC(=O)[C@H](CCCN=C(N)N)NC(=O)[C@H](Cc1c[nH]c2ccccc12)NC(=O)[C@@H](N)CC(N)=O)C(=O)N[C@@H](Cc1ccc(O)cc1)C(=O)N[C@@H](CCCN=C(N)N)C(=O)N[C@@H](CCCN=C(N)N)C(=O)N[C@@H](CCCCN)C(=O)O [NWRKLYRRK]	–	86.5 µM (≈ 114 µg/mL)	–	–	–	–	> 86.5 µM	≥ 86.5 µM	≥ 43.3 µM	≥ 86.5 µM	≥ 86.5 µM	86.5 µM (≈ 114 µg/mL)
CC[C@H](C)[C@H](NC(=O)[C@H](CCCN=C(N)N)NC(=O)[C@H](CC(C)C)NC(=O)[C@H](CCCN=C(N)N)NC(=O)[C@@H](N)C(C)C)C(=O)N[C@@H](CCCN=C(N)N)C(=O)N[C@H](C(=O)N[C@@H](C)C(=O)N[C@H](C(=O)N[C@H](C(=O)N[C@@H](CCCN=C(N)N)C(=O)N[C@@H](CCCCN)C(N)=O)[C@@H](C)CC)C(C)C)C(C)C [VRLRIRVAVIRK]	–	4.06 µM (≈ 6 µg/mL)	–	–	–	–	–	2.03 µM (≈ 3 µg/mL)	1.08 µM (≈ 1.6 µg/mL)	4.06 µM (≈ 6 µg/mL)	4.06 µM (≈ 6 µg/mL)	2.03 µM (≈ 3 µg/mL)
CSCC[C@H](NC(=O)[C@H](CCCCN)NC(=O)[C@H](Cc1ccccc1)NC(=O)[C@@H](N)Cc1c[nH]c2ccccc12)C(=O)N[C@@H](CCCN=C(N)N)C(=O)N[C@@H](Cc1c[nH]c2ccccc12)C(=O)N[C@@H](Cc1c[nH]c2ccccc12)C(=O)NCC(=O)N[C@@H](CCCN=C(N)N)C(=O)O [WFKMRWWGR]	–	2.9 µM (≈ 3.92 µg/mL)	–	–	–	–	11.5 µM (≈ 15.6 µg/mL)	5.8 µM (≈ 7.85 µg/mL)	2.9 µM (≈ 3.92 µg/mL)	≥ 46.1 µM	23.1 µM (≈ 31.2 µg/mL)	11.5 µM (≈ 15.6 µg/mL)
